Data on 2 molecules can be found in patent US20080299228A1, “TOPICAL COMPOSITIONS COMPRISING A MACROMOLECULE AND METHODS OF USING SAME” (priority 2007, published 2008).

Data set [1] is described as follows: Excipient compatibility screening with sodium thiosulfate (appearance). It is filed as physicochemical. Particulars: added to the gel formulation. Here is the method:
During preformulation studies, sodium thiosulfate and methionine were identified as effective antioxidants for PTH(1-34). […] Sodium thiosulfate was assayed in the gel formulations listed in Table 21 in the absence of PTH(1-34) in order to identify which excipients were incompatible with sodium thiosulfate. Gel formulations were prepared according to the method described in Example 8. LDPE dropper bottles (5 mL) were purchased from IntraPac Group and over wrap foil (FR-2175) was obtained from Covalence Coated Products. The appearance of all samples was noted initially and after one week of storage at 20° C. protected from light.

The nature of data set [2]: Rehydration time of lyophilized polymer gels. The format is physicochemical. Particulars: xanthan gum, carrageenan. As for the experimental part: Lyophilized gels were prepared by slowing adding the polymer to water with stirring. For gels with methylcellulose or hydroxypropylcellulose, the polymer was added to hot water and the product was cooled with stirring. The gels took between 1-3 hours to reach maximum viscosity. All gels were allowed to stand for at least 12 hours before any additional processing. If PTH(1-34) was included in the formulation, the peptide was added to an aliquot of gel and gently stirred for 10 minutes.
Prior to lyophilization, gels were filled into Type I glass vials and frozen. Freezing was performed on a freezer shelf (−20° C.) or in a dry ice/ethanol bath (˜−48° C.). The lyophilizer (Ultra-dry Labtop, Freezedry Specialties, Inc) was equipped with a condenser (−50° C.) and an ultra high vacuum pump (DUO 2.5, Pfeiffer Vacuum, Inc) to provide optimal conditions for sublimating the frozen water. No heating or cooling was applied to the lyophilizer shelf. Vials containing lyophilized gels with PTH(1-34) were purged with nitrogen before stoppering (Teflon coated butyl rubber) and sealing (aluminum crimp seal).
A panel of lyophilized polymer gel was screened for the capacity to reform gels following rehydration. […]

Take `O=S([O-])([O-])=S.[Na+].[Na+]` [sodium thiosulfate]: the “compatibility with the gel formulation” value in data set [1] is reported as “a yellowish precipitate formed”.

Take “PTH(1-34): parathyroid hormone fragment 1-34, supplied by Neo-MPS”: in data set [2], the “compatibility with anionic polymers” value is reported as “not compatible with anionic polymers”.
